Some results are limits rather than exact numbers.

The test system of the first assay is NMRI-mice. The assay is described as follows: Acceleration of gastric emptying and small intestinal propulsion in NMRI-mice. In kind it is in vivo. The following applies: lowest active dose; subcutaneous, 30 min before phenol red test meal; active when >60% of animals had phenol red front beyond 85% of small intestinal length. On the procedure: Male NMRI-mice weighing around 25 gram were fasted for 20 h and had free access to drinking water. Test compounds were administered to the animals by subcutaneous route 30 min before they were given a test meal by oral gavage. The test meal consisted of 0.3 ml of a chocolate nutridrink solution (1.0 kcal/ml) containing phenol red marker (5 mg/ml). Fifteen min after administration of the meal, the mice were sacrificed by CO2 gas inhalation. The phenol red content remaining in the stomach (extracted from the stomach with NaOH) was determined at 557 nm in a spectrophotometer and expressed as extinction units. Small intestinal propulsion was determined as the distance traveled by the phenol red marker through the intestine and expressed as a percentage of total small intestinal length (from the pylorus to the ileo-cecal junction).
The lowest dose that was active for each parameter was noted as the lowest active dose (LAD). Table 12 discloses LAD values.
As for GHRP-6 [reference compound], the “LAD (mg/kg) Small intestinal propulsion” value came to 2.5 mg/kg.

Staying with this assay, now noted: lowest active dose; subcutaneous, 30 min before phenol red test meal; stomach content 15 min after meal; active when >60% of animals below 0.9 extinction units.
In the case of GHRP-6 [reference compound], the “LAD (mg/kg) Gastric emptying” value is recorded as 0.63 mg/kg.

For the next assay, the target named is T1, GHS1A-receptor (Homo sapiens, UniProt Q92847).
T1 construct: expressed in transfected cells; host or cells: HEK293
T1 sequence (Q92847 whole entry): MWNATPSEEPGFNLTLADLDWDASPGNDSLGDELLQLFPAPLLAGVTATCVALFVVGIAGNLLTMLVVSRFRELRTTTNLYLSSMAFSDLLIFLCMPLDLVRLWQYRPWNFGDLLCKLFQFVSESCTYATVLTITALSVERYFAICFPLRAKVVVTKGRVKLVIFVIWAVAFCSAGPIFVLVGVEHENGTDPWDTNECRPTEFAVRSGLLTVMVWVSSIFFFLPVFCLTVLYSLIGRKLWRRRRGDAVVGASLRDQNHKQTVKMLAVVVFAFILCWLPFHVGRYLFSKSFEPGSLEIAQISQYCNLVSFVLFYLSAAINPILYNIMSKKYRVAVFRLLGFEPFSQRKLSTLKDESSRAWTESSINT
The assay is described as follows: Ghrelin-agonism in HEK293 cells (intracellular calcium, FLIPR). In kind it is cell-based. The note with it: HEK293 cells permanently transfected with GHS1A-receptor, calcium fluorescence (fluo-4 or Kit-3), EC50 in M, read-out: pEC50 (converted). The procedure: One day before the experiment, HEK293 cells, permanently transfected with the gene sequence for expression of the GHS1A-receptor, were seeded in poly-D-Lysine coated 96-well plates with clear bottom, and allowed to grow to […] of confluence on the next day.
Then, cells were incubated with the calcium-sensitive intracellular fluorescent probe fluo-4 or Kit-3 for 1 h at 37° C. Fluorescence representing free intracellular calcium in the cells was measured in a FLIPR-system (excitation at 488 nm, emission>520 nm). Test compounds were added to each well at the desired concentration and the fluorescence signal was simultaneously recorded in all wells. Release of intracellular calcium triggered by activation of the receptors upon addition of the test compound was measured as the fluorescence emitted from the complex of calcium and the fluorescent probe. The drug effect on fluorescence intensity was expressed relative to the maximal fluorescence intensity measured in cells exposed to the calcium-ionophore ionomycin.
A general note: Calcium assays in cells follow changes in intracellular calcium, usually with a dye or a luminescent sensor.
For the compound `Oc1ccc([C@H]2CCCc3ccccc3[C@]2(O)CCCN2CCOCC2)cc1` (racemic) [Compound 7], the EC50 is above 10 µM. As for `Cc1ccc([C@H]2CCOc3ccccc3[C@]2(O)CCCN(C)C)cn1` (racemic) [Compound 9], the EC50 was 0.794 µM.

For `Cc1ccc([C@H]2CCOc3ccccc3[C@]2(O)CCCN(C)Cc2ccccc2)cc1` (racemic) [Compound 10], the EC50 is 0.251 µM.

For the compound `CO[C@]1(CCCN(C)C)c2ccccc2CCC[C@@H]1c1ccc(Cl)cc1` (racemic) [Compound 15], the EC50 was 1.58 µM.

In the case of `COCCN(C)CCCC1(O)c2ccccc2CCCC1c1cccc(C)c1` (racemic) [Compound 23], the EC50 is 0.0316 µM. Consider `Cc1cccc(C2CCCc3ccccc3C2(O)CCCN(C)Cc2ccccc2)c1` (racemic) [Compound 24], for which the EC50 is 3.98 µM. On to `Cc1cccc(C2CCCc3ccccc3C2(O)CCCN2CCOCC2)c1` (racemic) [Compound 25], for which the EC50 was 1.58 µM. Same read-out and setting: the same measure for `CC(=O)N1CCN(CCCC2(O)c3ccccc3CCCC2c2cccc(C)c2)CC1` (racemic) [Compound 26]: 3.16 µM. The same measure, in the same setting: under `CCN(CC)CCCC1(O)c2ccccc2CCCC1c1ccc(C)cc1` (racemic) [Compound 31] stands 0.0251 µM. In the case of `Cc1ccc(C2CCCc3ccccc3C2(O)CCCN2CCCCC2)cc1` (racemic) [Compound 32], the EC50 is 1 µM. With `Cc1ccc(C2CCCc3ccccc3C2(O)CCCN2CCN(C)CC2)cc1` (racemic) [Compound 33], the EC50 was 3.16 µM. On the same count and under the same terms, the same measure for `COCCN(C)CCCC1(O)c2ccccc2CCCC1c1ccc(O)cc1` (racemic) [Compound 37]: 2 µM; for `CCNCCCC1(O)c2ccccc2CCCC1c1ccc(Cl)cc1` (racemic) [Compound 44]: 0.501 µM. On to `CC(C)NCCCC1(O)c2ccccc2CCCC1c1ccc(Cl)cc1` (racemic) [Compound 45], for which the EC50 is 0.794 µM. Regarding `CN(CCCC1(O)c2ccccc2CCCC1c1ccc(Cl)cc1)Cc1ccccc1` (racemic) [Compound 47], the EC50 is 5.01 µM. The same measure, in the same setting: the same measure for `OC1CCN(CCCC2(O)c3ccccc3CCCC2c2ccc(Cl)cc2)C1` (racemic) [Compound 49]: 0.0794 µM; for `OC1(CCCN2CCCCC2)c2ccccc2CCCC1c1ccc(Cl)cc1` (racemic) [Compound 50]: 0.794 µM. With `OC1(CCCN2CCNCC2)c2ccccc2CCCC1c1ccc(Cl)cc1` (racemic) [Compound 51], the EC50 was 1.58 µM. Still for that read-out and setting: the same measure for `CN1CCN(CCCC2(O)c3ccccc3CCCC2c2ccc(F)cc2)CC1` (racemic) [Compound 55]: 1.58 µM; for `OC1(CCCN2CCCCC2)c2ccccc2CCCC1c1ccc(F)cc1F` (racemic) [Compound 59]: above 10 µM; for `CCN(CC)CCCC1(O)c2ccccc2CCCC1c1cccc(OC)c1` (racemic) [Compound 61]: 0.0251 µM. The same measure, in the same setting: the same measure for `COc1cccc(C2CCCc3ccccc3C2(O)CCCN(C)Cc2ccccc2)c1` (racemic) [Compound 62]: 2.51 µM; for `COc1ccc(C2CCCc3ccccc3C2(O)CCCN)cc1` (racemic) [Compound 64]: 25.1 µM; for `CNCCCC1(O)c2ccccc2CCCC1c1ccc(OC)cc1` (racemic) [Compound 65]: 0.794 µM. Take `COc1ccc(C2CCCc3ccccc3C2(O)CCCNCc2ccccc2)cc1` (racemic) [Compound 68]: the EC50 is above 31.6 µM. Still for that read-out and setting: under `COc1ccc(C2CCCc3ccccc3C2(O)CCCN(C)Cc2ccccc2)cc1` (racemic) [Compound 69] stands above 10 µM; under `COCCN(C)CCCC1(O)c2ccccc2CCCC1c1ccc(OC)cc1` (racemic) [Compound 70], 1.26 µM; under `COCCN(C)CCCC1(O)c2ccccc2CCCC1c1ccc(Cl)c(OC)c1` (racemic) [Compound 75], 0.0158 µM.

Source of the values: patent publication US9040725B2, “Benzocycloheptane and benzoxepine derivatives” (Janssen Pharmaceutica NV, priority 2008, dated 2015).
